SMILES strings stand for the structures. Several values for one entry are separate records, joined by “and”; a condition that tells them apart may be missing. Equal entries are not always repeated. Inconclusive results and toxic doses are left out.

The experiment relates to L1210 leukemia ip in BDF1 mice, survival T/C. The experiment can be described thus: NCI In Vivo Anticancer Drug Screen. Data for tumor model L1210 Leukemia (intraperitoneal) in B6D2F1 (BDF1) mice. As to conditions: endpoint: mean survival time, higher = longer survival. In short, it runs like this: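 Transplanted-tumor mice were given test agent; controls received vehicle only. Survival readings from the two groups were divided (treated over control).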

The mark [1] stands for this setting: dose: 400.0 mg/kg/injection, schedule: Q01DX001 (ip), vehicle: carboxymethylcellulose (CMC).
The mark [2] stands for this setting: dose: 100.0 mg/kg/injection, schedule: Q01DX009 (ip), vehicle: Klucel (hydroxypropylcellulose) (HPC).
Setting [3] is: dose: 200.0 mg/kg/injection, schedule: Q01DX009 (ip), vehicle: Klucel (hydroxypropylcellulose) (HPC).
The mark [4] stands for this setting: dose: 400.0 mg/kg/injection, schedule: Q01DX009 (ip), vehicle: Klucel (hydroxypropylcellulose) (HPC).
The mark [5] stands for this setting: dose: 100.0 mg/kg/injection, schedule: Q04DX003 (ip), vehicle: Klucel (hydroxypropylcellulose) (HPC).
Where [6] appears, read: dose: 200.0 mg/kg/injection, schedule: Q04DX003 (ip), vehicle: Klucel (hydroxypropylcellulose) (HPC).
Where [7] appears, read: dose: 400.0 mg/kg/injection, schedule: Q04DX003 (ip), vehicle: Klucel (hydroxypropylcellulose) (HPC).
Setting [8] is: dose: 100.0 mg/kg/injection, schedule: Q04DX003 (ip), vehicle: saline.
Where [9] appears, read: dose: 200.0 mg/kg/injection, schedule: Q04DX003 (ip), vehicle: saline.
Where [10] appears, read: dose: 400.0 mg/kg/injection, schedule: Q04DX003 (ip), vehicle: saline.
[11] abbreviates: dose: 50.0 mg/kg/injection, schedule: Q01DX009 (ip), vehicle: saline.

`CC(C)CCNc1ccc(NCCC(C)C)cc1`: the T/C is, setting by setting: (dose: 12.5 mg/kg/injection, schedule: Q01DX009 (ip), vehicle: saline with Tween-80) 100 % of control; (dose: 12.5 mg/kg/injection, schedule: Q04DX003 (ip), vehicle: Klucel (hydroxypropylcellulose) (HPC)) 104 % of control; (dose: 25.0 mg/kg/injection, schedule: Q01DX009 (ip), vehicle: saline with Tween-80) 100 % of control; (dose: 25.0 mg/kg/injection, schedule: Q04DX003 (ip), vehicle: Klucel (hydroxypropylcellulose) (HPC)) 96 % of control; (dose: 50.0 mg/kg/injection, schedule: Q01DX009 (ip), vehicle: saline with Tween-80) 96 % of control; (dose: 50.0 mg/kg/injection, schedule: Q04DX003 (ip), vehicle: Klucel (hydroxypropylcellulose) (HPC)) 96 % of control. Besides, the T/C (dose: 75.0 mg/kg/injection, schedule: Q01DX009 (ip), vehicle: alcohol) is 86 % of control.

Turning to `CN=C(Nc1ccccn1)c1ccc(NC(=O)c2ccc(C(=O)Nc3ccc(C(=NC)Nc4ccccn4)cc3)cc2)cc1`, the T/C (dose: 1.87 mg/kg/injection, schedule: Q01DX015 (ip), vehicle: methylcellulose (MC)) was 95 % of control; the T/C (dose: 3.75 mg/kg/injection, schedule: Q01DX015 (ip), vehicle: methylcellulose (MC)) is 96 % of control; the T/C (dose: 7.5 mg/kg/injection, schedule: Q01DX015 (ip), vehicle: methylcellulose (MC)) was 108 % of control; the T/C (dose: 15.0 mg/kg/injection, schedule: Q01DX015 (ip), vehicle: methylcellulose (MC)) is 101 % of control.

Regarding `O=C(O)c1ccc(S(=O)(=O)F)c(Cl)c1`, the T/C was 100 % of control (dose: 100.0 mg/kg/injection, schedule: Q01DX009 (ip), vehicle: saline with Tween-80); 102 % of control (dose: 200.0 mg/kg/injection, schedule: Q01DX009 (ip), vehicle: saline with Tween-80); 89 % of control (dose: 400.0 mg/kg/injection, schedule: Q01DX009 (ip), vehicle: saline with Tween-80).

On to `O=NN(CCCl)C(=O)Nc1ccc2c(c1)-c1ccccc1C2`, for which the T/C is 121 % of control (dose: 118.0 mg/kg/injection, schedule: Q01DX001 (ip), vehicle: carboxymethylcellulose (CMC)); 188 % of control and 196 % of control (dose: 118.0 mg/kg/injection, schedule: Q01DX009 (ip), vehicle: carboxymethylcellulose (CMC)); 122 % of control (dose: 177.0 mg/kg/injection, schedule: Q01DX009 (ip), vehicle: carboxymethylcellulose (CMC)); 88 % of control (dose: 266.0 mg/kg/injection, schedule: Q01DX009 (ip), vehicle: carboxymethylcellulose (CMC)); 159 % of control under setting [1]; 92 % of control and 113 % of control (dose: 400.0 mg/kg/injection, schedule: Q01DX009 (ip), vehicle: carboxymethylcellulose (CMC)). For the same compound, the T/C (dose: 600.0 mg/kg/injection, schedule: Q01DX001 (ip), vehicle: carboxymethylcellulose (CMC)) was 150 % of control.

In the case of `CSc1ccccc1N=NN(C)C`, the T/C under setting [2] was 101 % of control; the T/C under setting [3] was 97 % of control and 105 % of control; the T/C under setting [4] was 95 % of control and 100 % of control; the T/C (dose: 800.0 mg/kg/injection, schedule: Q01DX009 (ip), vehicle: Klucel (hydroxypropylcellulose) (HPC)) was 121 % of control.

Take `O=C1CC(c2ccc(O)cc2)CC(=O)C1C(C1CC=CCC1)N(CCCl)CCCl` (configuration not stated): the T/C is 105 % of control and 104 % of control under setting [2]; 103 % of control under setting [5]; 105 % of control and 100 % of control under setting [3]; 106 % of control and 104 % of control under setting [6]; 110 % of control and 100 % of control under setting [4]; 110 % of control and 101 % of control under setting [7].

On to `O=C(CC(O)(C(F)(F)F)C(F)(F)F)c1cccc2ccccc12`, for which the T/C is, setting by setting: under setting [5], 97 % of control; under setting [6], 90 % of control; under setting [7], 90 % of control.

Regarding `O=C1OC(=O)C2C1C1C3C=CC3C1C21C=C1` (configuration not stated), the T/C was 100 % of control (dose: 100.0 mg/kg/injection, schedule: Q01DX009 (ip), vehicle: other); 96 % of control under setting [8]; 109 % of control (dose: 200.0 mg/kg/injection, schedule: Q01DX009 (ip), vehicle: other); 93 % of control under setting [9]; 110 % of control (dose: 400.0 mg/kg/injection, schedule: Q01DX009 (ip), vehicle: other); 100 % of control under setting [10].

Turning to `CN(C)P1(=O)OCCN1N` (configuration not stated), the T/C was 105 % of control under setting [11]; 117 % of control (dose: 100.0 mg/kg/injection, schedule: Q01DX009 (ip), vehicle: saline); 104 % of control under setting [8]; 103 % of control (dose: 200.0 mg/kg/injection, schedule: Q01DX009 (ip), vehicle: saline); 96 % of control under setting [9].

Regarding `O=C(N/N=C/c1cccnc1)C(O)C(O)C(O)C(O)CO` (configuration not stated), the T/C is, setting by setting: (dose: 100.0 mg/kg/injection, schedule: Q01DX001 (ip), vehicle: saline) 100 % of control; (dose: 200.0 mg/kg/injection, schedule: Q01DX001 (ip), vehicle: saline) 103 % of control; (dose: 400.0 mg/kg/injection, schedule: Q01DX001 (ip), vehicle: saline) 93 % of control.

In the case of `c1ccc(C(NC2CC3CCC2C3)c2ccccc2)cc1` (configuration not stated), the T/C (dose: 50.0 mg/kg/injection, schedule: Q01DX009 (ip), vehicle: saline sonified) is 101 % of control; the T/C (dose: 100.0 mg/kg/injection, schedule: Q01DX001 (ip), vehicle: Klucel (hydroxypropylcellulose) (HPC)) was 109 % of control; the T/C (dose: 100.0 mg/kg/injection, schedule: Q01DX009 (ip), vehicle: saline sonified) is 95 % of control; the T/C (dose: 200.0 mg/kg/injection, schedule: Q01DX001 (ip), vehicle: Klucel (hydroxypropylcellulose) (HPC)) was 95 % of control; the T/C (dose: 200.0 mg/kg/injection, schedule: Q01DX009 (ip), vehicle: saline sonified) is 100 % of control.

As for `CCCCCCCCCCCC(c1ccccc1)[N+](C)(C)C` (configuration not stated), the T/C reads like this: (dose: 0.5 mg/kg/injection, schedule: Q01DX001 (ip), vehicle: saline) 103 % of control; (dose: 1.0 mg/kg/injection, schedule: Q01DX001 (ip), vehicle: saline) 94 % of control; (dose: 1.0 mg/kg/injection, schedule: Q01DX009 (ip), vehicle: saline) 91 % of control; (dose: 2.0 mg/kg/injection, schedule: Q01DX001 (ip), vehicle: saline) 100 % of control; (dose: 2.0 mg/kg/injection, schedule: Q01DX009 (ip), vehicle: saline) 109 % of control; (dose: 4.0 mg/kg/injection, schedule: Q01DX001 (ip), vehicle: saline) 96 % of control. Besides, the T/C is, setting by setting: (dose: 4.0 mg/kg/injection, schedule: Q01DX009 (ip), vehicle: saline) 110 % of control; (dose: 8.0 mg/kg/injection, schedule: Q01DX001 (ip), vehicle: saline) 97 % of control.

Turning to `CCCCCn1cnc2c(=S)nc[nH]c21`, the T/C runs as follows: (dose: 50.0 mg/kg/injection, schedule: Q01DX001 (ip), vehicle: carboxymethylcellulose (CMC)) 92 % of control; (dose: 100.0 mg/kg/injection, schedule: Q01DX001 (ip), vehicle: carboxymethylcellulose (CMC)) 92 % of control; (dose: 100.0 mg/kg/injection, schedule: Q01DX009 (ip), vehicle: acetone) 93 % of control; under setting [8], 92 % of control; (dose: 200.0 mg/kg/injection, schedule: Q01DX001 (ip), vehicle: carboxymethylcellulose (CMC)) 97 % of control; (dose: 200.0 mg/kg/injection, schedule: Q01DX009 (ip), vehicle: acetone) 95 % of control. For the same compound, the T/C under setting [9] is 100 % of control; the T/C under setting [1] was 90 % of control; the T/C (dose: 400.0 mg/kg/injection, schedule: Q01DX009 (ip), vehicle: acetone) is 93 % of control; the T/C under setting [10] is 103 % of control.

For `C1CN2CN1CN1CCN(C1)C2`, the T/C (dose: 12.5 mg/kg/injection, schedule: Q01DX009 (ip), vehicle: saline) is 101 % of control; the T/C (dose: 25.0 mg/kg/injection, schedule: Q01DX009 (ip), vehicle: saline) is 108 % of control; the T/C under setting [11] was 114 % of control.

Turning to `Cc1cccc(C2NC(=O)c3ccccc3N2)c1` (configuration not stated), the T/C is 91 % of control under setting [5], 112 % of control under setting [6] and 91 % of control under setting [7].
